The target in this test is BmrA (Bacillus subtilis, UniProt O06967). Briefly: intrinsic tryptophan fluorescence quenching of purified protein. Format: binding. The source says:
intrinsic tryptophan fluorescence quenching of purified protein on BmrA | the binding of daunorubicin was similar for both detergents.

The structures appear in SMILES notation.

BmrA, sequence (O06967 whole entry): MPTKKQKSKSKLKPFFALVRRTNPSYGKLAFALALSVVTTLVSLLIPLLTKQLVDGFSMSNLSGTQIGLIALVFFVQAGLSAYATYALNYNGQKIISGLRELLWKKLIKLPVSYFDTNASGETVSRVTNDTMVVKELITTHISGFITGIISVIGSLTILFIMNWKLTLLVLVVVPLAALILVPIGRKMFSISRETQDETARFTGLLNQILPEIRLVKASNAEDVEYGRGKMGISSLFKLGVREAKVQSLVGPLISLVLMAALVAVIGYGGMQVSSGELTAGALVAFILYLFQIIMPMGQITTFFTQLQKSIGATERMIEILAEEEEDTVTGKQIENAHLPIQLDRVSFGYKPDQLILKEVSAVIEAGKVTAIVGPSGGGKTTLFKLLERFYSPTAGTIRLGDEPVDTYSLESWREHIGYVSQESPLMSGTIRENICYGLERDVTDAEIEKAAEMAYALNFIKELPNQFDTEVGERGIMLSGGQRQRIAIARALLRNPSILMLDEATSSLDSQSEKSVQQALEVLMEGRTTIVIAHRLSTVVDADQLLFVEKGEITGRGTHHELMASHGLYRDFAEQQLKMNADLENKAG

`COc1cccc2c1C(=O)c1c(O)c3c(c(O)c1C2=O)C[C@@](O)(C(C)=O)C[C@@H]3O[C@H]1C[C@H](N)[C@H](O)[C@H](C)O1` [daunorubicin]: the Kd (commonly the constant that tells how readily two partners part at equilibrium) came to 12.4 ± 0.8 µM.

The record behind these values is publication PMC3069034, “Structuring Detergents for Extracting and Stabilizing Functional Membrane Proteins” (PLoS ONE, 2011).
